Literature values as cited in patent publication US20190358206A1, “TOPICAL FORMULATIONS OF BIARYL HETEROCYCLIC COMPOUNDS AND METHODS OF USE THEREOF” (Melinta Subsidiary Corp., priority 2016, published 2019).

Tested on: intracellular S. aureus (including linezolid-resistant), Listeria monocytogenes and Legionella pneumophila
Conditions: cited from earlier work

SMILES: CC(=O)NC[C@H]1CN(c2ccc(-c3ccc(CNCc4cnn[nH]4)cc3)c(F)c2)C(=O)O1 [Radezolid, N-[3-(2-Fluoro-4′-{[(1H-[1,2,3]triazol-4-ylmethyl)-amino]-methyl}-biphenyl-4-yl)-2-oxo-oxazolidin-5-(S)-ylmethyl]-acetamide]
- intracellular killing: kills intracellular S. aureus (including linezolid-resistant), Listeria monocytogenes and Legionella pneumophila
